{"source": "patent US20260297085A1", "about": "“1 H-PYRROLO[2,3-B]PYRIDIN-4-YL]-2-OXOPYRROLIDINE-3-CARBONITRILE DERIVATIVES AS TYROSINE KINASE 2 (TYK2) INHIBITORS FOR THE TREATMENT OF INFLAMMATORY DISEASES” (BIOGEN MA INC., priority 2023, published 2026)", "key": {"[1]": {"target": "T1, human TYK2 kinase domain (JH1) (Homo sapiens, UniProt P29597)", "T1 construct": "recombinantly generated catalytic kinase (also known as JH1) domain of human JAK1, JAK2, JAK3 and TYK2", "T1 sequence (P29597 897-1176 limits assumed)": "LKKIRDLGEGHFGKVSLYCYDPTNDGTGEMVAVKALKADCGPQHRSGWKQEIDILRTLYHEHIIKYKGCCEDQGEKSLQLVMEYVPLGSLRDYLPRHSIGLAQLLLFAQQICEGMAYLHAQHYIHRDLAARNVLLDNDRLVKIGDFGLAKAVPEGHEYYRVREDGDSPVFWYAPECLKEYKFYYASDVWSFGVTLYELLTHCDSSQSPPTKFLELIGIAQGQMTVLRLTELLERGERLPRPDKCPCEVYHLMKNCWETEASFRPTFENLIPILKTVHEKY", "assay": "JH1 biochemical assay for TYK2 (ADP-Glo kinase assay, recombinant JH1 catalytic domain, JAK3-974 peptide, 10 μM ATP)", "method_in_brief": "(§1)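 Kinase 4 nM JAK1 / 0.2 nM JAK2 / 0.3 nM JAK3 / 2 nM TYK2; 50 μM peptide; 100 min. Unused ATP depleted, ADP→ATP, luciferase luminescence. 11-pt 3-fold series from 10 or 1 μM; normalized, 4PL fit → IC50.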"}, "[2]": {"target": "T2, human JAK1 kinase domain (JH1) (Homo sapiens, UniProt P23458)", "T2 construct": "recombinantly generated catalytic kinase (also known as JH1) domain of human JAK1, JAK2, JAK3 and TYK2", "T2 sequence (P23458 875-1153 limits assumed)": "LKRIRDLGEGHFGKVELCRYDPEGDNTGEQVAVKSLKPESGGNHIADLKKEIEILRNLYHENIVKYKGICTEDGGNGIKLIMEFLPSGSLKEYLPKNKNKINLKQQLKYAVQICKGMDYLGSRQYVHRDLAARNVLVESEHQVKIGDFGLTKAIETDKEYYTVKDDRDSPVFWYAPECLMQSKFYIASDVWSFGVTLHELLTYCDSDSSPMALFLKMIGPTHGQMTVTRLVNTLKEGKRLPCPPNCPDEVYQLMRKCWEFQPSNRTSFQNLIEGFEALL", "assay": "JH1 biochemical assay for JAK1 (ADP-Glo kinase assay, recombinant JH1 catalytic domain, JAK3-342 peptide, 35 μM ATP)", "method_in_brief": "as §1"}, "[3]": {"target": "T3, human JAK2 kinase domain (JH1) (Homo sapiens, UniProt O60674)", "T3 construct": "recombinantly generated catalytic kinase (also known as JH1) domain of human JAK1, JAK2, JAK3 and TYK2", "T3 sequence (O60674 849-1124 limits assumed)": "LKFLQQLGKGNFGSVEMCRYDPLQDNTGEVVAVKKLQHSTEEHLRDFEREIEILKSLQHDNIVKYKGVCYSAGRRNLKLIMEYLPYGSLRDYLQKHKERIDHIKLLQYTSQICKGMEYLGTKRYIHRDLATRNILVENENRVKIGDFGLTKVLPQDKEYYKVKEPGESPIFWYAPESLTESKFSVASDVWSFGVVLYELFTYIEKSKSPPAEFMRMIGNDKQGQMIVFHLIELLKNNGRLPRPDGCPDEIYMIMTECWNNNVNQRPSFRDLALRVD", "assay": "JH1 biochemical assay for JAK2 (ADP-Glo kinase assay, recombinant JH1 catalytic domain, JAK3-974 peptide, 15 μM ATP)", "method_in_brief": "as §1"}, "[4]": {"target": "T4, human JAK3 kinase domain (JH1) (Homo sapiens, UniProt P52333)", "T4 construct": "recombinantly generated catalytic kinase (also known as JH1) domain of human JAK1, JAK2, JAK3 and TYK2", "T4 sequence (P52333 822-1111 limits assumed)": "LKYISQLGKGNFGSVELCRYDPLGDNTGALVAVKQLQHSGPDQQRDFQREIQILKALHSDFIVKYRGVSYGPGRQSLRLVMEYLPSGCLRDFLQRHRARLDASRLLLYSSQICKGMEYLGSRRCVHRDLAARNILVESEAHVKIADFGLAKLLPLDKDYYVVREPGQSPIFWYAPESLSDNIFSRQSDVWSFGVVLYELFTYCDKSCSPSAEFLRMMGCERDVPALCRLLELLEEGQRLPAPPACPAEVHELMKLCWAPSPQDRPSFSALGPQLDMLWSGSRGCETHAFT", "assay": "JH1 biochemical assay for JAK3 (ADP-Glo kinase assay, recombinant JH1 catalytic domain, JAK3-974 peptide, 4 μM ATP)", "method_in_brief": "as §1"}, "[5]": {"target": "Tyk2 kinase activity on STAT4 in NK92 cells (Homo sapiens, UniProt P29597)", "sequence (P29597 whole entry)": "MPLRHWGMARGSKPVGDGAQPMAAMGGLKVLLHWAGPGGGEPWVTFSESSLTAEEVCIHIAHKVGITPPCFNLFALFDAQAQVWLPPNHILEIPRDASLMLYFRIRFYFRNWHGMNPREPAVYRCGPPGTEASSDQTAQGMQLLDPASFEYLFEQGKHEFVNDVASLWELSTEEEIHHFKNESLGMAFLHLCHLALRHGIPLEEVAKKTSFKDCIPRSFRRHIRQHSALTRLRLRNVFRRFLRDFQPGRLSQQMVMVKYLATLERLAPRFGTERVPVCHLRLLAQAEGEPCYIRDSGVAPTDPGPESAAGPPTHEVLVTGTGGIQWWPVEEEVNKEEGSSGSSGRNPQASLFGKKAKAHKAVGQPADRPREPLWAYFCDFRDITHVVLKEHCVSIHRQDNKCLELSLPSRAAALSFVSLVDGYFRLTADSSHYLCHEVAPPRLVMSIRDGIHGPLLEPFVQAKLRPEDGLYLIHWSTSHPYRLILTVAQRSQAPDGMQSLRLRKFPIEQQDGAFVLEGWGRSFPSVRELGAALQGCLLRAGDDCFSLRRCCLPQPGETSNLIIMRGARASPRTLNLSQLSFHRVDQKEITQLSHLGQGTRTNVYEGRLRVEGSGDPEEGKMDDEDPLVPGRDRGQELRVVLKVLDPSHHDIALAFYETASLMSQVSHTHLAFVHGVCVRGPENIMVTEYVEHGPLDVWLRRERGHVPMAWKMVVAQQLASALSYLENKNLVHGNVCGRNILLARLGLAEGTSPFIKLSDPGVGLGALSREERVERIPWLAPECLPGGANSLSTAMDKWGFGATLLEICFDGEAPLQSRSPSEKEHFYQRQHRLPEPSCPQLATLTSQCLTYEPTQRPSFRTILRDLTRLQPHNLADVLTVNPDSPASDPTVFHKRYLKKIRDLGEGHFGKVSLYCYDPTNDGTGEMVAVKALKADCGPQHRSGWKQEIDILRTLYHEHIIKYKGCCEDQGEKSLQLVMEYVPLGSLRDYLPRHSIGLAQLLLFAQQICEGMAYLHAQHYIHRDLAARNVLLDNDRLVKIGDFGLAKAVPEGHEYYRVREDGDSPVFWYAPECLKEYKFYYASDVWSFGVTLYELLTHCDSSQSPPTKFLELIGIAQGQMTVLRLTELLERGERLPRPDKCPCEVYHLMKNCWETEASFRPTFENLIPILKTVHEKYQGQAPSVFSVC", "assay": "pSTAT4 cell assay (MSD; NK92 cells, 30 ng/mL IL2 stimulation)", "assay_type": "cell-based", "conditions": "30 ng/mL IL2, 15 minutes", "method_in_brief": "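Read-out: phospho-STAT in NK92 lysates, MSD format, anti-STAT4 antibodies. Cells were serum-starved, given compound for 1 hr (10 μM top, four-fold, 10 points) and IL2-stimulated (30 ng/mL, 15 min). Normalized percent activity vs log concentration, 4-parameter logistic fit gave IC50.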"}, "[6]": {"target": "JAK2 kinase activity on STAT5 in TF1 cells (Homo sapiens, UniProt O60674)", "sequence (O60674 whole entry)": "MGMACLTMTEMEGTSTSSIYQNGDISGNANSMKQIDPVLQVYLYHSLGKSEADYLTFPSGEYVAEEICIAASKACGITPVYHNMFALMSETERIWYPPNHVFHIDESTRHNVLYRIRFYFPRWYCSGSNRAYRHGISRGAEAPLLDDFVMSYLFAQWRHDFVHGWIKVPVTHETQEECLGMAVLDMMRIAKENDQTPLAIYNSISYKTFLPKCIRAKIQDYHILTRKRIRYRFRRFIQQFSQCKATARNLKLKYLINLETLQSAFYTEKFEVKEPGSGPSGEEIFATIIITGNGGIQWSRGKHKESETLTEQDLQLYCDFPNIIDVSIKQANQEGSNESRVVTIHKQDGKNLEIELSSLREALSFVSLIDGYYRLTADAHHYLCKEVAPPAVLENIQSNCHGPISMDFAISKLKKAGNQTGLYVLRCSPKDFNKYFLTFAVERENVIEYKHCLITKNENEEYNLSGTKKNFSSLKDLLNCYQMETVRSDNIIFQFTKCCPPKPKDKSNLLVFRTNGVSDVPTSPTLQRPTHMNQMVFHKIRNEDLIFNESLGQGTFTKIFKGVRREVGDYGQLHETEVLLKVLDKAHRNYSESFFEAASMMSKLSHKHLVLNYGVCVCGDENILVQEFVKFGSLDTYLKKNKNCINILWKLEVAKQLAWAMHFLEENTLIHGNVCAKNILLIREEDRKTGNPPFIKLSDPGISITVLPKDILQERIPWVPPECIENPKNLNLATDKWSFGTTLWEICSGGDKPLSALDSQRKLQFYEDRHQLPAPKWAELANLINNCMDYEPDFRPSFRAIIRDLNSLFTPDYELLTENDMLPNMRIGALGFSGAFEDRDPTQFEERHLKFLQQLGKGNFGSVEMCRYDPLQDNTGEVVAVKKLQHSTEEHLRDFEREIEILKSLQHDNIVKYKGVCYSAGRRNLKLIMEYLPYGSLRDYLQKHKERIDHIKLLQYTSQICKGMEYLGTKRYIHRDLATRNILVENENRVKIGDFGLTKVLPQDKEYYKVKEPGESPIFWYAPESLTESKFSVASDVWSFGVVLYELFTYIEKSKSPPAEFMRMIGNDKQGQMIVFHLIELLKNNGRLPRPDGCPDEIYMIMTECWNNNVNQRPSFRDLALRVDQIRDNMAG", "assay": "pSTAT5 cell assay (MSD; TF1 cells, 30 ng/mL IL-3 stimulation)", "assay_type": "cell-based", "conditions": "30 ng/mL IL-3, 15 minutes", "method_in_brief": "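IC50 from a 4-parameter logistic fit of normalized pSTAT5 signal, measured by MSD in lysates of TF1 cells. Cells were serum-starved, exposed to compound for 1 h (top concentration 10 μM, four-fold, 10 points), then given IL-3 at 30 ng/mL for 15 min.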"}, "[7]": {"target": "JAK1 kinase activity on STAT3 in TF1 cells (Homo sapiens, UniProt P23458)", "sequence (P23458 whole entry)": "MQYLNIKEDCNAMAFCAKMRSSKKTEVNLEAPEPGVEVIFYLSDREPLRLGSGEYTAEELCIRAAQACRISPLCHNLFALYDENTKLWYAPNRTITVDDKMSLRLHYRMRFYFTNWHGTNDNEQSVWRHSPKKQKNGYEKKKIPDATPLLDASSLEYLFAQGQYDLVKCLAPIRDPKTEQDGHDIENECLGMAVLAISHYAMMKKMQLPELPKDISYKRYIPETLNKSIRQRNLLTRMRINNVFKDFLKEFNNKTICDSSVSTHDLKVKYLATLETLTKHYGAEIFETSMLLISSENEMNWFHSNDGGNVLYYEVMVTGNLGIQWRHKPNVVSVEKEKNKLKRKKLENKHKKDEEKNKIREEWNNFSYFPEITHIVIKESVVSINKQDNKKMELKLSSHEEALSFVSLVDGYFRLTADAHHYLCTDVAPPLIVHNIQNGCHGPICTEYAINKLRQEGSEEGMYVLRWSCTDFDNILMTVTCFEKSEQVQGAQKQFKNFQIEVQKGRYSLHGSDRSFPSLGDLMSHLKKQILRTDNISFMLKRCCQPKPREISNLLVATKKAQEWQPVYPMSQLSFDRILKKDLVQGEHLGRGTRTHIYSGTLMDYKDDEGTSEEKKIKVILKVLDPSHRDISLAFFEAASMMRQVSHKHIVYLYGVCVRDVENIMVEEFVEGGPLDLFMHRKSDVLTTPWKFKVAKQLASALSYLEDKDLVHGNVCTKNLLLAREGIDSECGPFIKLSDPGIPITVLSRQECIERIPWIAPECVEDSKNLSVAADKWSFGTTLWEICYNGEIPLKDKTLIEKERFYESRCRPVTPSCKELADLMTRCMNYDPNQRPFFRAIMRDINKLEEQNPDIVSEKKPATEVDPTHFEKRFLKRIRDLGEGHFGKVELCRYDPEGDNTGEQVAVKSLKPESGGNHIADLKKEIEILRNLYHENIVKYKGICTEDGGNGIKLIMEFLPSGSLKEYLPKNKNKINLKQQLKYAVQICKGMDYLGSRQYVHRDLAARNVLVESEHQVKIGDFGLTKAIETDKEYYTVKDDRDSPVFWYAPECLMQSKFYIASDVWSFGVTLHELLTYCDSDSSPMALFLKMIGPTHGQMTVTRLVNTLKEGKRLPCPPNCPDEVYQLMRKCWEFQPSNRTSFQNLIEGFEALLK", "assay": "pSTAT3 cell assay (MSD; TF1 cells, 30 ng/mL IL-6 stimulation)", "assay_type": "cell-based", "conditions": "30 ng/mL IL-6, 15 minutes", "method_in_brief": "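IC50 values reflect 4-parameter logistic fits of normalized pSTAT3 signal, measured by MSD in lysed TF1 cells. Cells were serum-starved and treated with compound for 1 h (top concentration 10 μM) before a 15 min IL-6 challenge.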"}}, "note": "Where a name gives a salt, the structure may show the parent alone."}
{"smiles": "C[C@@H]1CN(c2nc(-c3cnn(CC(F)F)c3)cc3ncsc23)C(=O)[C@]1(C#N)C1CC1", "note": "[Example 354, (3R,4S)-3-cyclopropyl-1-(6-(1-(2,2-difluoroethyl)-1H-pyrazol-4-yl)thiazolo[5,4-c]pyridin-4-yl)-4-methyl-2-oxopyrrolidine-3-carbonitrile]", "values": [{"measurement": "IC50", "setting": "[1]; TYK2 JH1, ADP-Glo", "value": "< 5", "unit": "nM"}, {"measurement": "IC50", "setting": "[2]; JAK1 JH1, ADP-Glo", "value": "< 100", "unit": "nM"}, {"measurement": "IC50", "setting": "[3]; JAK2 JH1, ADP-Glo", "value": "< 100", "unit": "nM"}, {"measurement": "IC50", "setting": "[4]; JAK3 JH1, ADP-Glo", "value": "< 100", "unit": "nM"}, {"measurement": "IC50", "setting": "[5]", "value": "20 to 50", "unit": "nM"}, {"measurement": "IC50", "setting": "[6]", "value": "< 100", "unit": "nM"}, {"measurement": "IC50", "setting": "[7]", "value": "< 100", "unit": "nM"}]}
{"smiles": "CC[C@@H]1CN(c2ccnn3cc(-c4cnn(C)c4)cc23)C(=O)[C@]1(C#N)C1CC1", "note": "[Example 23, (3R,4S)-3-cyclopropyl-4-ethyl-1-(6-(1-methyl-1H-pyrazol-4-yl)pyrrolo[1,2-b]pyridazin-4-yl)-2-oxopyrrolidine-3-carbonitrile]", "values": [{"measurement": "IC50", "setting": "[1]; JH1 kinase domain, ADP-Glo", "value": "5 to 20", "unit": "nM"}, {"measurement": "IC50", "setting": "[2]; JH1 kinase domain, ADP-Glo", "value": "100 to 1000", "unit": "nM"}, {"measurement": "IC50", "setting": "[3]; JH1 kinase domain, ADP-Glo", "value": "100 to 1000", "unit": "nM"}, {"measurement": "IC50", "setting": "[4]; JH1 kinase domain, ADP-Glo", "value": "100 to 1000", "unit": "nM"}, {"measurement": "IC50", "setting": "[5]", "value": "50 to 100", "unit": "nM"}, {"measurement": "IC50", "setting": "[6]", "value": "5000 to 10000", "unit": "nM"}, {"measurement": "IC50", "setting": "[7]", "value": "1000 to 5000", "unit": "nM"}]}
{"smiles": "C[C@@H]1CN(c2ccnn3cc(-c4cnn([C@H]5COCC(F)(F)C5)c4)cc23)C(=O)[C@]1(C#N)C1CC1", "note": "(single isomer, unassigned) [Example 327]", "values": [{"measurement": "IC50", "setting": "[1]; TYK2 JH1, ADP-Glo", "value": "< 5", "unit": "nM"}, {"measurement": "IC50", "setting": "[2]; JAK1 JH1, ADP-Glo", "value": "< 100", "unit": "nM"}, {"measurement": "IC50", "setting": "[3]; JAK2 JH1, ADP-Glo", "value": "< 100", "unit": "nM"}, {"measurement": "IC50", "setting": "[4]; JAK3 JH1, ADP-Glo", "value": "< 100", "unit": "nM"}, {"measurement": "IC50", "setting": "[5]", "value": "50 to 100", "unit": "nM"}, {"measurement": "IC50", "setting": "[6]", "value": "100 to 1000", "unit": "nM"}, {"measurement": "IC50", "setting": "[7]", "value": "1000 to 5000", "unit": "nM"}]}
{"smiles": "C[C@@H]1CN(c2ccnn3cc(-c4ccnc(C#N)c4)cc23)C(=O)[C@]1(C#N)C1CC1", "note": "[Example 93, 4-(4-((3R,4S)-3-cyano-3-cyclopropyl-4-methyl-2-oxopyrrolidin-1-yl)pyrrolo[1,2-b]pyridazin-6-yl)picolinonitrile]", "values": [{"measurement": "IC50", "setting": "[1]; JH1 kinase domain, ADP-Glo", "value": "5 to 20", "unit": "nM"}, {"measurement": "IC50", "setting": "[2]; JH1 kinase domain, ADP-Glo", "value": "100 to 1000", "unit": "nM"}, {"measurement": "IC50", "setting": "[3]; JH1 kinase domain, ADP-Glo", "value": "100 to 1000", "unit": "nM"}, {"measurement": "IC50", "setting": "[4]; JH1 kinase domain, ADP-Glo", "value": "100 to 1000", "unit": "nM"}, {"measurement": "IC50", "setting": "[5]", "value": "> 100", "unit": "nM"}, {"measurement": "IC50", "setting": "[6]", "value": "> 10000", "unit": "nM"}, {"measurement": "IC50", "setting": "[7]", "value": "5000 to 10000", "unit": "nM"}]}
{"smiles": "C[C@@H]1CN(c2ccnn3cc(-c4cnn(C5CCCCC5)c4)cc23)C(=O)[C@]1(C#N)C1CC1", "note": "[Example 169, (3R,4S)-1-(6-(1-cyclohexyl-1H-pyrazol-4-yl)pyrrolo[1,2-b]pyridazin-4-yl)-3-cyclopropyl-4-methyl-2-oxopyrrolidine-3-carbonitrile]", "values": [{"measurement": "IC50", "setting": "[1]; JH1 kinase domain, ADP-Glo", "value": "< 5", "unit": "nM"}, {"measurement": "IC50", "setting": "[2]; JH1 kinase domain, ADP-Glo", "value": "< 100", "unit": "nM"}, {"measurement": "IC50", "setting": "[3]; JH1 kinase domain, ADP-Glo", "value": "< 100", "unit": "nM"}, {"measurement": "IC50", "setting": "[4]; JH1 kinase domain, ADP-Glo", "value": "< 100", "unit": "nM"}, {"measurement": "IC50", "setting": "[5]", "value": "> 100", "unit": "nM"}, {"measurement": "IC50", "setting": "[6]", "value": "1000 to 5000", "unit": "nM"}, {"measurement": "IC50", "setting": "[7]", "value": "1000 to 5000", "unit": "nM"}]}
{"smiles": "C[C@@H]1CN(c2ccnn3cc(-c4cn5c(n4)CCC5)cc23)C(=O)[C@]1(C#N)C1CC1", "note": "[Example 106, (3R,4S)-3-cyclopropyl-1-(6-(6,7-dihydro-5H-pyrrolo[1,2-a]imidazol-2-yl)pyrrolo[1,2-b]pyridazin-4-yl)-4-methyl-2-oxopyrrolidine-3-carbonitrile trifluoroacetate]", "values": [{"measurement": "IC50", "setting": "[1]; JH1 kinase domain, ADP-Glo", "value": "< 5", "unit": "nM"}, {"measurement": "IC50", "setting": "[2]; JH1 kinase domain, ADP-Glo", "value": "100 to 1000", "unit": "nM"}, {"measurement": "IC50", "setting": "[3]; JH1 kinase domain, ADP-Glo", "value": "100 to 1000", "unit": "nM"}, {"measurement": "IC50", "setting": "[4]; JH1 kinase domain, ADP-Glo", "value": "100 to 1000", "unit": "nM"}, {"measurement": "IC50", "setting": "[5]", "value": "> 100", "unit": "nM"}, {"measurement": "IC50", "setting": "[6]", "value": "> 10000", "unit": "nM"}, {"measurement": "IC50", "setting": "[7]", "value": "> 10000", "unit": "nM"}]}
{"smiles": "C[C@@H]1CN(c2nc(-c3cnn(C4CC(F)(F)C4)c3)cn3nccc23)C(=O)[C@]1(C#N)C1CC1", "note": "[Example 290, (3R,4S)-3-cyclopropyl-1-(6-(1-(3,3-difluorocyclobutyl)-1H-pyrazol-4-yl)pyrazolo[1,5-a]pyrazin-4-yl)-4-methyl-2-oxopyrrolidine-3-carbonitrile]", "values": [{"measurement": "IC50", "setting": "[1]; TYK2 JH1, ADP-Glo", "value": "< 5", "unit": "nM"}, {"measurement": "IC50", "setting": "[2]; JAK1 JH1, ADP-Glo", "value": "< 100", "unit": "nM"}, {"measurement": "IC50", "setting": "[3]; JAK2 JH1, ADP-Glo", "value": "< 100", "unit": "nM"}, {"measurement": "IC50", "setting": "[4]; JAK3 JH1, ADP-Glo", "value": "< 100", "unit": "nM"}, {"measurement": "IC50", "setting": "[5]", "value": "20 to 50", "unit": "nM"}, {"measurement": "IC50", "setting": "[6]", "value": "100 to 1000", "unit": "nM"}, {"measurement": "IC50", "setting": "[7]", "value": "100 to 1000", "unit": "nM"}]}
{"smiles": "C[C@@H]1CN(c2ccnn3cc(-c4ccc(S(C)(=O)=O)nc4)cc23)C(=O)[C@]1(C#N)C1CC1", "note": "[Example 52, (3R,4S)-3-cyclopropyl-4-methyl-1-(6-(6-(methylsulfonyl)pyridin-3-yl)pyrrolo[1,2-b]pyridazin-4-yl)-2-oxopyrrolidine-3-carbonitrile]", "values": [{"measurement": "IC50", "setting": "[1]; JH1 kinase domain, ADP-Glo", "value": "5 to 20", "unit": "nM"}, {"measurement": "IC50", "setting": "[2]; JH1 kinase domain, ADP-Glo", "value": "100 to 1000", "unit": "nM"}, {"measurement": "IC50", "setting": "[3]; JH1 kinase domain, ADP-Glo", "value": "100 to 1000", "unit": "nM"}, {"measurement": "IC50", "setting": "[4]; JH1 kinase domain, ADP-Glo", "value": "100 to 1000", "unit": "nM"}, {"measurement": "IC50", "setting": "[5]", "value": "> 100", "unit": "nM"}, {"measurement": "IC50", "setting": "[6]", "value": "> 10000", "unit": "nM"}, {"measurement": "IC50", "setting": "[7]", "value": "5000 to 10000", "unit": "nM"}]}
